Experimental data as given in paper PMC8333062, “Chemical tools for epichaperome-mediated interactome dysfunctions of the central nervous system” (Nature Communications, 2021).

Assays:
[1] = Acute toxicity, single IV infusion; type: in vivo, B6D2F1 mice; conditions: 2 mg/kg IV once, 14 days
Description: Samus Therapeutics, Inc. Confidential 07-November-2017 […]
other pathologic tissues, such as brain regions afflicted by neurodegeneration).This unique behavior of PU-AD provides the rationale for its favorable therapeutic index. It also provides the rationale for the use of a 124I-labeled PU-AD as a PET imaging agent to 1. detect tissues associated with stress HSP90 and 2. inform on the biodistribution and PK of PU -AD.
To assess acute toxicity of a single intravenous (IV) infusion of PU-AD, B6D2F1 mice (15 males and 15 females/group) were dosed IV once with either vehicle control or PU-AD at a dose of 2 mg/kg, which corresponds to 200x the maximum intended human dose for the PU-AD PET study. […]
normal behavior throughout. […] No abnormal findings were detected during gross necropsy, while complete histopathology evaluation is still pending. […]
To asses if chronic administration of PU -AD presented any toxicities, a preliminary study in 13 (6 male & 7 female) B6C3F1 mice was conducted. […] Thyroid was evaluated because PU-AD contains an […]
124I-PU-AD radiation dosimetry is a key part of this pilot trial, and 124I-PU-AD radiation dosimetry analyses shall be ongoing during the trial. In brief, region -of-interest (ROI) image analysis of 124I-PU-AD PET data allows organ dosimetry, calculated using the MIRD formalism as […]

[2] = tested on: epichaperome -ve (ASPC1) tumors; test: Small-animal PET, xenografted tumors; type: in vivo, mouse; conditions: 48 h post-injection
Method: (§1) We opted for the use of xenografted MDA-MB-468 and ASPC1 tumors in mice (target-positive versus target-negative, respectively, with equal total HSP90 levels, Fig. 3b). Because PU-HZ151 rapidly distributes throughout the body (see Fig. 2a and further below), and taking in consideration the high concentration of chaperones in cells (>100 µM)[41], a bolus injection creates a rapid equilibrium mixture state. Subsequent to reaching an ‘equilibrium’ state throughout the body, PU-HZ151 then rapidly clears from plasma, which initiates a body-wide dilution state. Recording the differential concentration-time curves for PU-HZ151 in the two tumor types offers the relative dissociation rate constants, but most importantly, informs on probe’s epichaperome selectivity (Fig. 3a).
(§2) For subcutaneous xenografts, mice were anesthetized with 2% isoflurane (Baxter Healthcare) (2 l min^−1 medical air). […]
(§3) Orthotopic GBM xenografts in mice were established by injection of 5 × 10^5 cells in 2 μL PBS. […] PET data for each mouse was recorded using static scans of 15 min and acquired at the indicated times post injection. Quantification and %ID g^−1 values were calculated by manually drawing regions of interests in three different frames and determining the average values using ASI Pro VM™ MicroPET Analysis software (Siemens Medical Solutions, Knoxville, TX).

[3] = tested on: epichaperome +ve (MDA-MB-468) tumors; test: Small-animal PET, xenografted tumors; type: in vivo, mouse; conditions: 48 h post-injection
Method: as §1, §2, §3

[4] = LC-MS/MS profile of brain and tumor extracts; conditions: 1 h post-intravenous injection

## CC(C)(C)CNCCn1c(Sc2cc3c(cc2I)OCO3)nc2c(N)ncnc21 [Compound 85]
[1]
  acute toxicity: No mortality or morbidity was observed
[2]
  tumor retention by PET: no signal was noted in ASPC1 tumors
[3]
  tumor retention by PET: clear retention and visualization of MDA-MB-468 tumors even at 48 h post-injection
[4]
  species detected in lesions and brain: only the intact PU-HZ151 molecule
